Data from patent publication US20160221992A1, “DENDRITIC COMPOUNDS INCLUDING A CHELATING, FLUOROCHROME OR RECOGNITION AGENT, COMPOSITIONS INCLUDING SAME AND USES THEREOF” (UNIVERSITE DE STRASBOURG, priority 2013, published 2016).

How the values were obtained:
[1] = system: murine melanoma (B16FO line); assay: Quantitative study of tumoral fixation and biodistribution of the radiolabeled compound (ex-vivo gamma counting after IV injection); format: in vivo, C57B16 mice; conditions: for % Elimination/Al / Ratio (g)/Al TU/kidneys / Ratio (g)/Al Tu/Liver / Ratio (g)/Al Tu/Lungs / Ratio (g)/Al Tu/blood / Tumor (g/Al %) / Total Elimination (%/Al): IV; for tumoral uptake compared with the ligand alone (AP045): APAG22-1: at two hours post-IV
Protocol: C57B16 mice bearing xenografts of murine melanoma (B16FO line) obtained by subcutaneous injection of 300 000 cells suspended in 100 μl of RPMI culture medium are injected subcutaneously in the back. The experiment is performed when the tumors are palpable. i.e. about 10 days […]. All the experiments (tumoral graft, injection and imaging) are carried out under isoflurane/oxygen (2.5%/2.5%) gas anesthesia.
Injection of 50 to 100 microliters of the radiolabeled solution, with a maximum activity of 20 MBQ, by direct intravenous injection (caudal vein). The activity of the empty syringe after injection+compress is also measured for calculating the actual activity injected (actual Ac injected=Ac normalized full syringe—normalized activity (empty syringe and compress). Normalization consists in calculating the theoretical activity at one and the same time chosen as reference (for example the time of injection). The measurements are performed on a regularly calibrated activity meter for medical use (Medisystem©).
(§1) Scintigraphic imaging is carried out using a dedicated small animal micro-5 imager SPECT-CT (BIOSCAN™). A planar scintigraphic image is obtained immediately after injection to verify absence of intracaudal stasis. If there is stasis, the mouse will be sacrificed at late times (24 or 48 h). Static scintigraphic images may be recorded at 2 h, 4 h, 24 h and 48 h (Imager micro-SPECT-CT BIOSCAN©).
This is done ex-vivo by gamma counting of the various samples, using a gamma well counter for medical use, regularly calibrated for the isotopes used (Tc-99m and In-111). The animals are euthanized according to the protocols allowed by the animal ethics committee at 2 h, 4 h, 24 h or 48 h. The main organs are removed (brain, spleen, kidneys, lungs, heart, alimentary canal, liver) as well as a fragment of skin, muscle, bone and a blood sample and the whole tumor. Each sample is weighed and its gamma activity is counted in a sample-changing well counter for dedicated medical use, calibrated for the radioelements used. The animal's carcass is also weighed after removing the tail; these samples are incinerated and their gamma activity is also measured. The gamma activity of the samples containing all the collected urine and the feces is also measured. The activity of each sample is normalized (relative to the time of injection), and the ratio of the activity of each sample is calculated relative to the total activity injected (=the sum of all of the activities measured except that of the tail), expressed in % per gram of tissue, for calculating the ratio of the activity present in the tumor relative to the main organs (liver, kidneys, lungs and blood). The percentage of the activity eliminated is calculated.
The mean values of all of the data for all of the mice whose data are exploitable are calculated, as well as after eliminating the animals with urinary excretion that is too quick (>50% at 2 h or 75% at 4 h, as well as the mice with tumors >2 g, as the existence of necrosis may distort the calculation of the ratio of fixation in the tumor).
The biodistribution data of the various dendrimer compounds coupled to the IFC01102 ligand (also called amine R) and to a chelating agent are compared with those of the ligand alone coupled to the DOTA chelating agent (compound AP045) and radiolabeled with the same radioelement. 8.5 Results with Compound APAG9-1 (Radiolabeled with Tc99m) The radiochemical purity is above 95%, according to the chromatographic profile obtained as described above (example 5). 12 animals were injected. The average activity injected is 3.5±2.4 MBq. 2 animals were euthanized at 2 h, 4 at 24 h and 48 h post-injection. Examples of planar image immediately post-injection and 2 hours post-injection are illustrated in FIG. 3.

[2] = Lymphatic drainage after intradermal injection in the hind paws (sentinel lymph node characterization, scintigraphy/SPECT); format: in vivo, mouse
Protocol: as §1, with “performed” for “carried out”, “stasis.” for “stasis. If there is stasis, the mouse will be sacrificed at late times (24 or 48 h).”
Intradermal injection of 1 to 20 microliters of a suspension of radiolabeled dendrimers with a hypodermic syringe in the pad of the hindpaw of a nude mouse. A whole-body planar scintigraphic image of the mouse is obtained 5 minutes after injection to verify absence of passage of the compound through the blood. Acquisition of tomographic images (SPECT) every 30 minutes to monitor the lymphatic drainage of the compound and determine the time of disappearance of the signal in the popliteal lymph node. 9.3.a Injection of Compound X1 Labeled with Tc99m (Generation 2 Molecule)

[3] = 48 post-IV, Indium-111-radiolabeled, first series (all animals)
[4] = 48 post-IV, Indium-111-radiolabeled, second series (two mice with too quick urinary excretion eliminated)
[5] = 2 h post-iv, Indium-111-radiolabeled, first series (all animals)
[6] = 2 h post-iv, Indium-111-radiolabeled, second series (two mice with too quick urinary excretion eliminated)
[7] = 4 h post-IV, Indium-111-radiolabeled, first series (all animals)
[8] = 4 h post-IV, Indium-111-radiolabeled, second series (two mice with too quick urinary excretion eliminated)
[9] = 24 h post-IV, Indium-111-radiolabeled, first series (all animals)
[10] = 24 h post-IV, Indium-111-radiolabeled, second series (two mice with too quick urinary excretion eliminated)
[11] = 48 post-IV, Tc99m-radiolabeled, first series (all animals)
[12] = 48 post-IV, Tc99m-radiolabeled, second series (mice with too quick urinary secretion or too large tumor eliminated)
[13] = 2 h post-iv, Tc99m-radiolabeled, first series (all animals)
[14] = 2 h post-iv, Tc99m-radiolabeled, second series (mice with too quick urinary secretion or too large tumor eliminated)
[15] = 4 h post-IV, Tc99m-radiolabeled, first series (all animals)
[16] = 4 h post-IV, Tc99m-radiolabeled, second series (mice with too quick urinary secretion or too large tumor eliminated)
[17] = 24 h post-IV, Tc99m-radiolabeled, first series (all animals)
[18] = 24 h post-IV, Tc99m-radiolabeled, second series (mice with too quick urinary secretion or too large tumor eliminated)
[19] = 24 hours after intradermal injection at the two hind paws, Tc99m, 2.8 MBq

## CCN(CC)CCNC(=O)c1cnc2cc(NC(=O)NCCOCCOCCNC(=O)CCOCCOCCOCCOCCNC(=O)CCN(CCC(=O)NCCOCCOCCOCCOCCC(=O)NCCOCCOCCNC(=O)Nc3ccc4nc(C(=O)NCCN(CC)CC)cnc4c3)Cc3cn(CCOCCOCCOCCOCCOCCOCCOCCNC(=O)CN4CCN(CC(=O)O)CCN(CC(=O)O)CCN(CC(=O)O)CC4)nn3)ccc2n1 [AP071]
[1]; [3]
  % Elimination/Al: 8.5E+01%
  Ratio (g)/Al TU/kidneys: 3.15E−01
  Ratio (g)/Al Tu/Liver: 4.79E−01
  Ratio (g)/Al Tu/Lungs: 2.85E+00
  Ratio (g)/Al Tu/blood: 1.17E+01
  Tumor (g/Al %): 3.40E−01 g/Al %
[1]; [4]
  % Elimination/Al: 8.5E+01%
  Ratio (g)/Al TU/kidneys: 3.15E−01
  Ratio (g)/Al Tu/Liver: 4.79E−01
  Ratio (g)/Al Tu/Lungs: 2.86E+00
  Ratio (g)/Al Tu/blood: 1.17E+01
  Tumor (g/Al %): 3.40E−01 g/Al %
[1]; [5]
  % Elimination/Al: 6.0E+01%
  Ratio (g)/Al TU/kidneys: 2.41E−02
  Ratio (g)/Al Tu/Liver: 1.38E−01
  Ratio (g)/Al Tu/Lungs: 2.43E−01
  Ratio (g)/Al Tu/blood: 8.69E−01
  Tumor (g/Al %): 4.42E+00 g/Al %
[1]; [6]
  % Elimination/Al: 5.1E+01%
  Ratio (g)/Al TU/kidneys: 2.25E−01
  Ratio (g)/Al Tu/Liver: 4.89E−01
  Ratio (g)/Al Tu/Lungs: 9.54E−01
  Ratio (g)/Al Tu/blood: 2.73E+00
  Tumor (g/Al %): 6.57E+00 g/Al %
[1]; 4 hours after IV injection, Indium-111
  tumoral uptake (in words): very high
[1]; [7]
  % Elimination/Al: 7.3E+01%
  Ratio (g)/Al TU/kidneys: 1.12E+00
  Ratio (g)/Al Tu/Liver: 2.09E+00
  Ratio (g)/Al Tu/Lungs: 6.20E+00
  Ratio (g)/Al Tu/blood: 3.92E+01
  Tumor (g/Al %): 1.62E+01 g/Al %
[1]; [8]
  % Elimination/Al: 6.9E+01%
  Ratio (g)/Al TU/kidneys: 1.39E+00
  Ratio (g)/Al Tu/Liver: 2.80E+00
  Ratio (g)/Al Tu/Lungs: 8.36E+00
  Ratio (g)/Al Tu/blood: 7.20E+01
  Tumor (g/Al %): 2.25E+01 g/Al %
[1]; [9]
  % Elimination/Al: 8.5E+01%
  Ratio (g)/Al TU/kidneys: 4.61E−01
  Ratio (g)/Al Tu/Liver: 6.98E−01
  Ratio (g)/Al Tu/Lungs: 2.88E+00
  Ratio (g)/Al Tu/blood: 9.46E+00
  Tumor (g/Al %): 3.07E+00 g/Al %
[1]; [10]
  % Elimination/Al: 8.5E+01%
  Ratio (g)/Al TU/kidneys: 4.61E−01
  Ratio (g)/Al Tu/Liver: 6.98E−01
  Ratio (g)/Al Tu/Lungs: 2.88E+00
  Ratio (g)/Al Tu/blood: 9.46E+00
  Tumor (g/Al %): 3.07E+00 g/Al %
[1]
  tumoral uptake compared with the ligand alone (AP045): far higher

## COCCOCCOCCOCCOc1cc(C(=O)NCCCCNC(=O)CN2CCN(CC(=O)O)CCN(CC(=O)O)CCN(CC(=O)O)CC2)cc(OCCOCCOCCOCCOC)c1OCCOCCOCCOCCOC [APAG4]
[2]; SPECT 3 h after intradermal injection, indium-111, 10 MBq
  drainage in the entire lymphatic network as far as the lumbar-aortic stage: clearly visible

## CCN(CC)CCNC(=O)c1cnc2cc(NC(=O)NCCOCCOCCNC(=O)CCOCCOCCOCCOCCOCCOCCOCCOCCOc3c(OCCOCCOCCOCCOC)cc(C(=O)NCCCNC(=O)C(CCCNC(=O)c4cccc(O)c4O)(CCCNC(=O)c4cccc(O)c4O)CCCNC(=O)c4cccc(O)c4O)cc3OCCOCCOCCOCCOC)ccc2n1 [APAG22-1]
[1]; [11]
  Ratio (g)/Al TU/kidneys: 1.74E−02
  Ratio (g)/Al Tu/Liver: 1.17E−01
  Ratio (g)/Al Tu/Lungs: 2.22E+00
  Ratio (g)/Al Tu/blood: 3.80E+00
  Total Elimination (%/Al): 7.36E+01 %/Al
  Tumor (g/Al %): 6.32E−01 g/Al %
[1]; [12]
  Ratio (g)/Al TU/kidneys: 1.74E−02
  Ratio (g)/Al Tu/Liver: 1.17E−01
  Ratio (g)/Al Tu/Lungs: 2.22E+00
  Ratio (g)/Al Tu/blood: 3.80E+00
  Total Elimination (%/Al): 7.32E+01 %/Al
  Tumor (g/Al %): 6.68E−01 g/Al %
[1]; [13]
  Ratio (g)/Al TU/kidneys: 3.36E−01
  Ratio (g)/Al Tu/Liver: 3.06E−01
  Ratio (g)/Al Tu/Lungs: 5.44E−01
  Ratio (g)/Al Tu/blood: 3.69E−01
  Total Elimination (%/Al): 2.59E+01 %/Al
  Tumor (g/Al %): 2.98E+00 g/Al %
[1]; [14]
  Ratio (g)/Al TU/kidneys: 4.75E−01
  Ratio (g)/Al Tu/Liver: 3.15E−01
  Ratio (g)/Al Tu/Lungs: 4.17E−01
  Ratio (g)/Al Tu/blood: 1.10E+00
  Total Elimination (%/Al): 1.46E+01 %/Al
  Tumor (g/Al %): 3.50E+00 g/Al %
[1]; [15]
  Ratio (g)/Al TU/kidneys: 1.09E−01
  Ratio (g)/Al Tu/Liver: 1.90E−01
  Ratio (g)/Al Tu/Lungs: 9.45E−01
  Ratio (g)/Al Tu/blood: 4.62E−01
  Total Elimination (%/Al): 3.58E+01 %/Al
  Tumor (g/Al %): 2.14E+00 g/Al %
[1]; [16]
  Ratio (g)/Al TU/kidneys: 1.09E−01
  Ratio (g)/Al Tu/Liver: 1.90E−01
  Ratio (g)/Al Tu/Lungs: 9.45E−01
  Ratio (g)/Al Tu/blood: 4.62E−01
  Total Elimination (%/Al): 3.58E+01 %/Al
  Tumor (g/Al %): 2.14E+00 g/Al %
[1]; [17]
  Ratio (g)/Al TU/kidneys: 2.11E−02
  Ratio (g)/Al Tu/Liver: 1.20E−01
  Ratio (g)/Al Tu/Lungs: 2.26E+00
  Ratio (g)/Al Tu/blood: 9.00E+00
  Total Elimination (%/Al): 6.45E+01 %/Al
  Tumor (g/Al %): 1.19E+00 g/Al %
[1]; [18]
  Ratio (g)/Al TU/kidneys: 2.11E−02
  Ratio (g)/Al Tu/Liver: 1.20E−01
  Ratio (g)/Al Tu/Lungs: 2.26E+00
  Ratio (g)/Al Tu/blood: 9.00E+00
  Total Elimination (%/Al): 5.45E+01 %/Al
  Tumor (g/Al %): 1.19E+00 g/Al %
[1]
  tumoral uptake compared with the ligand alone (AP045): higher
[1]; after IV injection of the radiolabeled compound
  time at which the maximum tumoral uptake is observed: 2 h
[1]; at 24 hours and 48 hours
  elimination compared with the ligand alone (AP045): far greater
[1]; mouse, in vivo
  Tumor to Liver ratio compared with the ligand alone (AP045): much higher

## COCCOCCOCCOCCOc1cc(COc2cc(OCc3cc(OCCOCCOCCOCCOC)c(OCCOCCOCCOCCOC)c(OCCOCCOCCOCCOC)c3)cc(C(=O)NCCCNC(=O)C(CCCNC(=O)c3cccc(O)c3O)(CCCNC(=O)c3cccc(O)c3O)CCCNC(=O)c3cccc(O)c3O)c2)cc(OCCOCCOCCOCCOC)c1OCCOCCOCCOCCOC [X1]
[2]; [19]
  hepatic activity: very low
  level of urinary elimination: very high
